One may read the half-life as the time in which the quantity being followed falls by half. A higher half-life goes with slow decline. The term IC50 denotes the concentration needed to halve the response being measured.

Series [1] is described as follows: Metabolic stability in mouse liver microsomes (MLM). A general note: Liver microsomes are a subcellular fraction often used to study metabolism.
Series [2] can be described thus: Metabolic stability in human liver microsomes (HLM).
A further series deals with NTRK2 (Homo sapiens (Human), UniProt Q16620). The series can be described thus: NTRK2 inhibition (IC50). Type of series: biochemical.
NTRK2, sequence (Q16620 32-822): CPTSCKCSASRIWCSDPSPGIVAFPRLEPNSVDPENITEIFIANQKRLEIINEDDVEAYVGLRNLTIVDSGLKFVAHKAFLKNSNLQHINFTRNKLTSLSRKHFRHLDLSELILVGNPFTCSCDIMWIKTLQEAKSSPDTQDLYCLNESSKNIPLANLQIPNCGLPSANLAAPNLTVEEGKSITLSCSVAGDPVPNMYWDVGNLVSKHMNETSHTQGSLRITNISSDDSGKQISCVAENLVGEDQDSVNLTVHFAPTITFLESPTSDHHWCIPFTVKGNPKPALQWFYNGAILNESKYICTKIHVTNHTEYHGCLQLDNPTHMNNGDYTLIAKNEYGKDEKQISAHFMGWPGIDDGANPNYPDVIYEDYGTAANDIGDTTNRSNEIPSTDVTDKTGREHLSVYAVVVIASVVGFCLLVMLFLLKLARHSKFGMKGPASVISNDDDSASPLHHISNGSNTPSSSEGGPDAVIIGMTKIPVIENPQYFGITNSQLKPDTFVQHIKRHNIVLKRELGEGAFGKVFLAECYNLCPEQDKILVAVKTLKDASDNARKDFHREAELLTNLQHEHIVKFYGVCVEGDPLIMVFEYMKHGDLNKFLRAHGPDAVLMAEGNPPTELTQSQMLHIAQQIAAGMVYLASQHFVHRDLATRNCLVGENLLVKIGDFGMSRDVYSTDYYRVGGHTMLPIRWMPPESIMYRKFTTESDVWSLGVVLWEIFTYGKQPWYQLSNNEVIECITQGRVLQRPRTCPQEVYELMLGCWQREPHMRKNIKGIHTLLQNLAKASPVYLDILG
The target of a further series is NTRK3 (Homo sapiens (Human), UniProt Q16288). Description: NTRK3 inhibition (IC50). The settings on record: read-out: NTRK3 IC50.
NTRK3, sequence (Q16288 32-839): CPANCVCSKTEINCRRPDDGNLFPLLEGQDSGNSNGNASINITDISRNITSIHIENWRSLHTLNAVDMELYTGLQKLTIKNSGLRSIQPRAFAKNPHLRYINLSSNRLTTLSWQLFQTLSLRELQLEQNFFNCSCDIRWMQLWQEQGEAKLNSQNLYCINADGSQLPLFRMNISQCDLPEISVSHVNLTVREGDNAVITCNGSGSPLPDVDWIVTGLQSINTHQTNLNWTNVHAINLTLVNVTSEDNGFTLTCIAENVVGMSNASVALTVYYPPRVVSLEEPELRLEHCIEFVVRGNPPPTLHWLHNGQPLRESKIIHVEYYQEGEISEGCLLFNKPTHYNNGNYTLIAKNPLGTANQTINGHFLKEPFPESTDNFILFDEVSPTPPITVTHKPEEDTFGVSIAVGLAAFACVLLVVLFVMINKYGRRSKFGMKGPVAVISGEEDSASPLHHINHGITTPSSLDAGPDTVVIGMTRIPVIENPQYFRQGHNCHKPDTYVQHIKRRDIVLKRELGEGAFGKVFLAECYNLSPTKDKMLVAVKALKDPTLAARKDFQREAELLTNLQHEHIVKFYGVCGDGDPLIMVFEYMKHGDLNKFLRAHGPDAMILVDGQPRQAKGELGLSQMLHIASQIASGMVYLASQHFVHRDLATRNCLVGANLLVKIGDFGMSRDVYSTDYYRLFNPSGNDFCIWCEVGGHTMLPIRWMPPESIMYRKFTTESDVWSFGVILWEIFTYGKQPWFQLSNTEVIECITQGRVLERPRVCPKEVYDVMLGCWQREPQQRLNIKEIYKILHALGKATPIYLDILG
The next series concerns the target NTRK1 (Homo sapiens (Human), UniProt P04629). The series can be described thus: NTRK1 inhibition (IC50).

Like-named read-outs stand apart in the source and are kept apart here.

NTRK1, sequence (P04629 33-796): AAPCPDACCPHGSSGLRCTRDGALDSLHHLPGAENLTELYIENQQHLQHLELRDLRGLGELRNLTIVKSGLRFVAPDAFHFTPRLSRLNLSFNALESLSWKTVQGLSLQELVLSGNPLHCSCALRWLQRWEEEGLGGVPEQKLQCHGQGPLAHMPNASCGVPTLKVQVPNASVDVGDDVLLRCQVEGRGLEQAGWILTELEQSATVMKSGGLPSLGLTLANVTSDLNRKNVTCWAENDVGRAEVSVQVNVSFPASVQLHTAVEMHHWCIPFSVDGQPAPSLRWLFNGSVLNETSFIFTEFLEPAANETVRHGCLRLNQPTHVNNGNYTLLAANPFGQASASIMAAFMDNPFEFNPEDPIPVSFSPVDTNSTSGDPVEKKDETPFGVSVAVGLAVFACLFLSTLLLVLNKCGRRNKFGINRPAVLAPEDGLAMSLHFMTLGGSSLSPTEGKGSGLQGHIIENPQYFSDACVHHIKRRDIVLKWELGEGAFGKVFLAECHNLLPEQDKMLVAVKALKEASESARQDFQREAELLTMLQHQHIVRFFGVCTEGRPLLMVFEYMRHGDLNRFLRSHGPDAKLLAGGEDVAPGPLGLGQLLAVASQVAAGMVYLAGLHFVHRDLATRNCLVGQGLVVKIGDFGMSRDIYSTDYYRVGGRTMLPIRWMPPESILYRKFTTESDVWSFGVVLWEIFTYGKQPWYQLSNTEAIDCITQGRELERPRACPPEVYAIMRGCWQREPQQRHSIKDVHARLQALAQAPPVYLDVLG

Consider `Cc1nnc2n1-c1ccc(Cl)cc1C(c1ccccc1)=NC2` [Alprazolam], for which the half-life amounted to 5.83 h in series [1] and 12.2 h in series [2].

`O=C(Nc1cccc(C(F)(F)F)c1)N(Cc1ccn2nccc2c1)C1CCC1` [CDD-2273, 1-cyclobutyl-1-(pyrazolo[1,5-a]pyridin-5-ylmethyl)-3-(3-(trifluoromethyl)phenyl)urea] showed an IC50 on NTRK2 of 1320 nM. Further, the half-life worked out at 0.137 h in series [1] and 0.258 h in series [2].

Regarding `O=C(Nc1ccc(OC(F)(F)F)cc1)N(Cc1ccn2nccc2c1)c1ccccc1` [CDD-2296, 1-phenyl-1-(pyrazolo[1,5-a]pyridin-5-ylmethyl)-3-(4-(trifluoromethoxy)phenyl)urea], half-maximal inhibition against NTRK2 (IC50) was put at 335 nM.

Consider `O=C(Nc1ccc([N+](=O)[O-])cc1)N(Cc1ccn2nccc2c1)C1CCC1` [CDD-2297, 1-cyclobutyl-3-(4-nitrophenyl)-1-(pyrazolo[1,5-a]pyridin-5-ylmethyl)urea], for which the IC50 against NTRK2 was greater than 10000 nM.

In the case of `O=C(Nc1ccc(OC(F)(F)F)cc1)N(Cc1ccn2nccc2c1)C1CCCCC1` [CDD-2298, 1-cyclohexyl-1-(pyrazolo[1,5-a]pyridin-5-ylmethyl)-3-(4-(trifluoromethoxy)phenyl)urea], at NTRK2, half-maximal inhibition (IC50) was put at 99 nM.

At NTRK2, `O=C(Nc1ccccc1OC(F)(F)F)N(Cc1ccn2nccc2c1)C1CCC1` [CDD-2300, 1-cyclobutyl-1-(pyrazolo[1,5-a]pyridin-5-ylmethyl)-3-(2-(trifluoromethoxy)phenyl)urea] came in with an IC50 greater than 10000 nM.

For the compound `O=C(Nc1ccc(OC(F)(F)F)cc1)N(Cc1ccn2nccc2c1)C1CCCCCC1` [CDD-2301, 1-cycloheptyl-1-(pyrazolo[1,5-a]pyridin-5-ylmethyl)-3-(4-(trifluoromethoxy)phenyl)urea], the half-inhibitory concentration (IC50) against NTRK2 was determined as 513 nM.

On to `CC(C)N(Cc1ccn2ncc(Br)c2c1)C(=O)Nc1ccc(OC(F)(F)F)cc1` [CDD-2735, 1-((3-bromopyrazolo[1,5-a]pyridin-5-yl)methyl)-1-isopropyl-3-(4-(trifluoromethoxy)phenyl)urea], for which the values for the IC50 at NTRK3, on NTRK1 (read-out: NTRK1 IC50) and against NTRK2 were 4.4 nM, 4.3 nM and 3.6 nM, respectively.

On to `O=C(O)c1cnn2ccc(CN(C(=O)Nc3ccc(OC(F)(F)F)cc3)C3CC3)cc12` [CDD-2736, 5-((1-cyclopropyl-3-(4-(trifluoromethoxy)phenyl)ureido)methyl)pyrazolo[1,5-a]pyridine-3-carboxylic acid], for which the half-inhibitory concentration (IC50) worked out at 3.3 nM on NTRK3, 4.1 nM on NTRK1 (read-out: NTRK1 IC50) and 2.5 nM against NTRK2.

Turning to `CC(C)CN(Cc1ccn2ncc(C(=O)O)c2c1)C(=O)Nc1ccc(OC(F)(F)F)cc1` [CDD-2742, 5-((1-isobutyl-3-(4-(trifluoromethoxy)phenyl)ureido)methyl)pyrazolo[1,5-a]pyridine-3-carboxylic acid], the results for the IC50 at NTRK3, on NTRK1 (read-out: NTRK1 IC50) and at NTRK2 were 11.8 nM, 104 nM and 5.7 nM, respectively.

Take `CCC(C)N(Cc1ccn2ncc(C(=O)O)c2c1)C(=O)Nc1ccc(OC(F)(F)F)cc1` (stereo not shown) [CDD-2743, 5-((1-(sec-butyl)-3-(4-(trifluoromethoxy)phenyl)ureido)methyl)pyrazolo[1,5-a]pyridine-3-carboxylic acid]: the 50% inhibitory concentration (IC50) on NTRK3 turned out to be 5.4 nM; at NTRK1 (read-out: NTRK1 IC50), 9.5 nM; against NTRK2, 6 nM.

For the compound `CC[C@@H](C)N(Cc1ccn2ncc(C(N)=O)c2c1)C(=O)Nc1ccc(OC(F)(F)F)cc1` [CDD-3057, (R)-5-((1-(sec-butyl)-3-(4-(trifluoromethoxy)phenyl)ureido)methyl)pyrazolo[1,5-a]pyridine-3-carboxamide], the IC50 at NTRK3 was found to be 6.6 nM; at NTRK1 (read-out: NTRK1 IC50) it was 17.6 nM; at NTRK2 it was 4 nM.

Consider `CC[C@H](C)N(Cc1ccn2ncc(C(N)=O)c2c1)C(=O)Nc1ccc(OC(F)(F)F)cc1` [CDD-3058, (S)-5-((1-(sec-butyl)-3-(4-(trifluoromethoxy)phenyl)ureido)methyl)pyrazolo[1,5-a]pyridine-3-carboxamide], for which the IC50 on NTRK3 came to 8.4 nM; on NTRK1 (read-out: NTRK1 IC50), 11.7 nM; at NTRK2, 3.7 nM.

For `CN(C)C(=O)[C@H](Cc1cccc([N+](=O)[O-])c1)NC(=O)Nc1c(Cl)cccc1C(F)(F)F` [CDD-3099, (S)-2-(3-(2-chloro-6-(trifluoromethyl)phenyl)ureido)-N,N-dimethyl-3-(3-nitrophenyl)propanamide], the values for the IC50 on NTRK1 and against NTRK2 were 39600 nM and 47400 nM, respectively.

`CNC(=O)[C@@H](Cc1ccc([N+](=O)[O-])cc1)NC(=O)Nc1ccc(Oc2ccccc2)cc1` [CDD-3100, (R)-N-methyl-3-(4-nitrophenyl)-2-(3-(4-phenoxyphenyl)ureido)propanamide]: the IC50 at NTRK1 (read-out: NTRK1 IC50) is 26300 nM; against NTRK2 it was 37200 nM.

On to `CC(C)c1ccc(OCC(=O)N(C)Cc2ccn3ncc(C(N)=O)c3c2)cc1` [CDD-3120, 5-((2-(4-isopropylphenoxy)-N-methylacetamido)methyl)pyrazolo[1,5-a]pyridine-3-carboxamide], for which the IC50 came out at 1780 nM on NTRK1 (read-out: NTRK1 IC50) and 242 nM at NTRK2.

As to `CN(Cc1ccn2ncc(C(N)=O)c2c1)C(=O)CCc1ccc(OC(F)(F)F)cc1` [CDD-3121, 5-((N-methyl-3-(4-(trifluoromethoxy)phenyl)propanamido)methyl)pyrazolo[1,5-a]pyridine-3-carboxamide], the IC50 at NTRK1 (read-out: NTRK1 IC50) is 11600 nM; at NTRK2, 3240 nM.

With `CC(C)c1ccc(OCC(=O)NCc2ccn3ncc(C(N)=O)c3c2)cc1` [CDD-3129, 5-((2-(4-isopropylphenoxy)acetamido)methyl)pyrazolo[1,5-a]pyridine-3-carboxamide], the IC50 was determined as 9540 nM on NTRK1 (read-out: NTRK1 IC50) and 3760 nM against NTRK2.

On to `NC(=O)c1cnn2ccc(CNC(=O)Nc3ccc(OC(F)(F)F)cc3)cc12` [CDD-3130, 5-((3-(4-(trifluoromethoxy)phenyl)ureido)methyl)pyrazolo[1,5-a]pyridine-3-carboxamide], for which the IC50 on NTRK1 (read-out: NTRK1 IC50) is 9200 nM; on NTRK2, 1260 nM.

In the case of `CN(Cc1ccn2ncc(C(N)=O)c2c1)C(=O)COc1ccc(C(F)(F)F)cc1` [CDD-3181, 5-((N-methyl-2-(4-(trifluoromethyl)phenoxy)acetamido)methyl)pyrazolo[1,5-a]pyridine-3-carboxamide], the results for the IC50 at NTRK1 (read-out: NTRK1 IC50) and at NTRK2 were 6720 nM and 1060 nM, respectively.

For the compound `CN(Cc1ccn2ncc(C(N)=O)c2c1)C(=O)COc1cccc(OC(F)(F)F)c1` [CDD-3182, 5-((N-methyl-2-(3-(trifluoromethoxy)phenoxy)acetamido)methyl)pyrazolo[1,5-a]pyridine-3-carboxamide], the IC50 was found to be 4060 nM on NTRK1 (read-out: NTRK1 IC50) and 354 nM against NTRK2.

For the compound `CN(Cc1ccn2ncc(C(N)=O)c2c1)C(=O)COc1ccc(C(C)(C)C)cc1` [CDD-3183, 5-((2-(4-(tert-butyl)phenoxy)-N-methylacetamido)methyl)pyrazolo[1,5-a]pyridine-3-carboxamide], the IC50 on NTRK1 (read-out: NTRK1 IC50) was determined as 3610 nM; on NTRK2 it was 247 nM.

For the compound `CN(Cc1ccn2ncc(C(N)=O)c2c1)C(=O)CN(C)c1ccc(C(C)(C)C)cc1` [CDD-3185, 5-((2-((4-(tert-butyl)phenyl)(methyl)amino)-N-methylacetamido)methyl)pyrazolo[1,5-a]pyridine-3-carboxamide], the IC50 amounted to 10900 nM on NTRK1 (read-out: NTRK1 IC50) and 1750 nM at NTRK2.

For `CC(C)N(Cc1ccc2[nH]ccc2c1)C(=O)COc1ccc(OC(F)(F)F)cc1` [CDD-3264, N-((1H-indol-5-yl)methyl)-N-isopropyl-2-(4-(trifluoromethoxy)phenoxy)acetamide], the half-maximal inhibitory concentration (IC50) was found to be 21800 nM at NTRK3, 43900 nM on NTRK1 (read-out: NTRK1 IC50) and 2090 nM at NTRK2.

Take `CC(C)N(Cc1ccc2[nH]ccc2c1)C(=O)Nc1ccc(OC(F)(F)F)cc1` [CDD-3265, 1-((1H-indol-5-yl)methyl)-1-isopropyl-3-(4-(trifluoromethoxy)phenyl)urea]: the IC50 on NTRK3 is 55100 nM; at NTRK1 (read-out: NTRK1 IC50), 50100 nM; on NTRK2, 53700 nM.

Turning to `CC(C)N(Cc1ccn2nccc2c1)C(=O)CNc1ccc(C(C)(C)C)nc1` [CDD-3306, 2-((6-(tert-butyl)pyridin-3-yl)amino)-N-isopropyl-N-(pyrazolo[1,5-a]pyridin-5-ylmethyl)acetamide], the half-inhibitory concentration (IC50) at NTRK3 worked out at 4770 nM; at NTRK1 (read-out: NTRK1 IC50), 2410 nM; at NTRK2 it was 1130 nM.

As to `CC(C)N(Cc1ccn2nccc2c1)C(=O)CNc1ccc(C2(C(F)(F)F)CC2)cc1` [CDD-3307, N-isopropyl-N-(pyrazolo[1,5-a]pyridin-5-ylmethyl)-2-((4-(1-(trifluoromethyl)cyclopropyl)phenyl)amino)acetamide], the IC50 at NTRK3 was found to be 922 nM; on NTRK1 (read-out: NTRK1 IC50), 2170 nM; on NTRK2 it was 414 nM.

Take `CN(Cc1ccn2ncc(C(N)=O)c2c1)S(=O)(=O)Nc1ccc(OC(F)(F)F)cc1` [CDD-3308, 5-((methyl(N-(4-(trifluoromethoxy)phenyl)sulfamoyl)amino)methyl)pyrazolo[1,5-a]pyridine-3-carboxamide]: the values for the IC50 on NTRK3, at NTRK1 (read-out: NTRK1 IC50) and against NTRK2 were 4320 nM, 28400 nM and 4440 nM, respectively.

In the case of `C[C@H]1CNC(=O)c2cnn3ccc(nc23)N[C@H](C)c2cc(F)ccc2O1` [Reprotrectinib, (3R,11S)-6-fluoro-3,11-dimethyl-10-oxa-2,13,17,18,21-pentazatetracyclo[13.5.2.04,9.018,22]docosa-1(21),4(9),5,7,15(22).16,19-heptaen-14-one, reference compound], the “MLM t1/2” value in series [1] was determined as 2.78 h. The “HLM t1/2” value in series [2] stood at 4.23 h.

In the case of `C[C@@H]1CCc2ncc(F)cc2[C@H]2CCCN2c2ccn3ncc(c3n2)C(=O)N1` [Selitrectinib, (6R,15R)-9-fluoro-15-methyl-2,11,16,20,21,24-hexazapentacyclo[16.5.2.02,6.07,12.021,25]pentacosa-1(24),7(12),8,10,18(25),19,22-heptaen-17-one, reference compound], the half-life in series [1] amounted to 0.533 h; in series [2], 4.07 h.

(Values after US20260049077A1, “Neurotrophic Receptor Tyrosine Kinase (NTRK) Inhibitors and Methods Using Same” (Baylor College of Medicine, priority 2022, published 2026).)
